Laboratory results from patent US8318980B2, “UV absorbing compounds” (Fujifilm Manufacturing Europe B.V., priority 2007, dated 2012).
“Also recorded” adds a separate entry of the source.

Key:
[1] = Heat stability test (UV-absorption left after storage at 50° C.); assay type: physicochemical; settings: for Heat stability: UV-absorption left after 5 days: 5 days at 50° C. in the dark; for Heat stability: UV-absorption left after 5 days / Heat stability: UV-absorption left after 50 days / Heat stability: UV-absorption left after 100 days: 1.5% in C12-C15 alkyl benzoate oil (compound 12: 5% in water), 375 nm versus sample stored at room temperature; for Heat stability: UV-absorption left after 50 days: 50 days at 50° C. in the dark; for Heat stability: UV-absorption left after 100 days: 100 days at 50° C. in the dark; for heat stability, in words: in C12-C15 alkylbenzoate oils
Experimental: Hereto, 1.5% solutions were prepared of compounds 4-11 and 13 in C12-C15 alkyl benzoate oil. […] The solutions were stored in closed vessels at 50° C. in the dark. After 5, 50 and 100 days, the UV-absorption of a diluted sample was measured at 375 nm comparative to a corresponding sample stored at room temperature. The UV-absorption left after each time span is shown in Table 4 indicated by + and − signs. ++ means >95% left, +− implies between 50-95% left, − indicates <50% left.

human skin = assay: Skin penetration test in diffusion cell; assay type: in vitro ADME; settings: for penetration into or through the skin (UV analysis of DMSO skin extracts), in words / penetration through the skin (UV-analysis of collected receptor fluids), in words: human skin, diffusion cell; for penetration through the skin (UV-analysis of collected receptor fluids), in words: 20 hrs
Experimental: The skin-penetration was evaluated based on the same method described on page 21 of WO2006/009451. FIG. 2 is a drawing of the skin penetration test equipment, wherein (1) indicates the position of the test sample (donor compound), (2) an ⅛″ OD× 1/32″ wall tubing, (3) the receptor input, (4) the receptor compartment and (5) the compound and receptor output that is subjected to analysis.
A compound 3 donor solution was prepared by dissolving 30 mg of compound 3 in 4 ml EtOH and 7 ml phosphate buffer (PBS) at pH 7.4. Compound 4, 6, 7, 8 and 9 donor solutions were prepared by dispersing 80 mg of these compounds in olive oil.
For each compound 4 pieces of human skin (Ø ca 3 cm, mostly epidermis) were applied on a dialysis membrane and mounted into the diffusion cell shown in the FIG. 2. The figure is a schematic drawing of the diffusion cell, wherein is indicated 1: donor compound, 2: receptor compartment, 3: receptor input, 4: compound and receptor output for analysis, 5: ⅛″ OD× 1/32″ wall tubing. The cells were mounted on a temperature controlling and stirring device. The temperature was kept at 37°. The receptor fluid was a PBS buffer. The receptor compartment was stirred magnetically. 400 μl of the donor solution was applied. The receptor fluid flowing at a speed of 1 ml/hr was collected into glass tubes (1 tube/2 hrs). After 20 hrs the penetration experiment was terminated.
Furthermore the skin parts were extracted with DMSO to dissolve any UV-absorber in the epidermis. The extracts were analysed by UV.

[2] = Solubility test in C12-C15 alkyl benzoate oil (Finsolv TN); assay type: physicochemical; parameters: key to Solubility in Finsolv TN, dissolved amount (m/m %) 1% / Solubility in Finsolv TN, dissolved amount (m/m %) 5% / Solubility in Finsolv TN, dissolved amount (m/m %) 20% / Solubility in Finsolv TN, dissolved amount (m/m %) 50% / Solubility in Finsolv TN, dissolved amount (m/m %) 80% / Solubility in Finsolv TN, dissolved amount (m/m %) 90%: +=well-soluble; −=not soluble; settings: dissolved at 80° C. for 1 hour, cooled to room temperature, inspected after 24 hours; for Solubility in Finsolv TN, dissolved amount (m/m %) 1%: 1% m/m; for Solubility in Finsolv TN, dissolved amount (m/m %) 5%: 5% m/m; for Solubility in Finsolv TN, dissolved amount (m/m %) 20%: 20% m/m; for Solubility in Finsolv TN, dissolved amount (m/m %) 50%: 50% m/m; for Solubility in Finsolv TN, dissolved amount (m/m %) 80%: 80% m/m; for Solubility in Finsolv TN, dissolved amount (m/m %) 90%: 90% m/m
Experimental: The aminobutadiene compounds according to the present invention have an optimised solubility for cosmetic oils. […] In Table 3, the solubility of compounds 4, 12 and 13 is shown at various concentrations (+=well-soluble; -=not soluble). The compounds were dissolved at 80° C. while stirring for 1 hour and cooled down to room temperature. After 24 hours the solutions were inspected for any precipitates or crystals.

CCCCCCCCOC(=O)/C(=C/C=C/NCCCCCCN(/C=C\C=C(/C(=O)OCCCCCCCC)S(=O)(=O)c1ccccc1)CCCCCCN/C=C/C=C(\C(=O)OCCCCCCCC)S(=O)(=O)c1ccccc1)S(=O)(=O)c1ccccc1 [Compound 5, reference compound]
Heat stability: UV-absorption left after 5 days [1]: ++ (++ means >95% left) | Heat stability: UV-absorption left after 50 days [1]: +− (+− implies between 50-95% left) | Heat stability: UV-absorption left after 100 days [1]: +− (+− implies between 50-95% left)

CCCCCCCCOC(=O)C(=CC=CN(CCCC)CCCCCCN(C=CC=C(C(=O)OCCCCCCCC)S(=O)(=O)c1ccccc1)CCCCCCN(C=CC=C(C(=O)OCCCCCCCC)S(=O)(=O)c1ccccc1)CCCC)S(=O)(=O)c1ccccc1 [Compound 6]
Heat stability: UV-absorption left after 5 days [1]: ++ (++ means >95% left) | Heat stability: UV-absorption left after 50 days [1]: ++ (++ means >95% left) | Heat stability: UV-absorption left after 100 days [1]: ++ (++ means >95% left) | heat stability, in words [1]: very heat stable | penetration into or through the skin (UV analysis of DMSO skin extracts), in words (human skin): do not penetrate into or through the skin | penetration through the skin (UV-analysis of collected receptor fluids), in words (human skin): no penetration

CCCCCCCCOC(=O)C(=CC=CN(CCN(CCN(C=CC=C(C(=O)OCCCCCCCC)S(=O)(=O)c1ccccc1)Cc1ccccc1)CCN(C=CC=C(C(=O)OCCCCCCCC)S(=O)(=O)c1ccccc1)Cc1ccccc1)Cc1ccccc1)S(=O)(=O)c1ccccc1 [Compound 7]
Heat stability: UV-absorption left after 5 days [1]: ++ (++ means >95% left) | Heat stability: UV-absorption left after 50 days [1]: ++ (++ means >95% left) | Heat stability: UV-absorption left after 100 days [1]: ++ (++ means >95% left) | heat stability, in words [1]: very heat stable | penetration into or through the skin (UV analysis of DMSO skin extracts), in words (human skin): do not penetrate into or through the skin | penetration through the skin (UV-analysis of collected receptor fluids), in words (human skin): no penetration

CCCCCCCCOC(=O)C(=CC=CN(CCCN(CCCCN(CCCN(C=CC=C(C(=O)OCCCCCCCC)S(=O)(=O)c1ccccc1)Cc1ccccc1)CCCN(C=CC=C(C(=O)OCCCCCCCC)S(=O)(=O)c1ccccc1)Cc1ccccc1)CCCN(C=CC=C(C(=O)OCCCCCCCC)S(=O)(=O)c1ccccc1)Cc1ccccc1)Cc1ccccc1)S(=O)(=O)c1ccccc1 [Compound 8]
Heat stability: UV-absorption left after 5 days [1]: ++ (++ means >95% left) | Heat stability: UV-absorption left after 50 days [1]: ++ (++ means >95% left) | Heat stability: UV-absorption left after 100 days [1]: ++ (++ means >95% left) | heat stability, in words [1]: very heat stable | penetration into or through the skin (UV analysis of DMSO skin extracts), in words (human skin): do not penetrate into or through the skin | penetration through the skin (UV-analysis of collected receptor fluids), in words (human skin): no penetration

CCCCCCCCOC(=O)C(=CC=CNCCN(CCNC=CC=C(C(=O)OCCCCCCCC)S(=O)(=O)c1ccccc1)CCNC=CC=C(C(=O)OCCCCCCCC)S(=O)(=O)c1ccccc1)S(=O)(=O)c1ccccc1 [Compound 10, reference compound]
Heat stability: UV-absorption left after 5 days [1]: ++ (++ means >95% left) | Heat stability: UV-absorption left after 50 days [1]: +− (+− implies between 50-95% left) | Heat stability: UV-absorption left after 100 days [1]: − (− indicates <50% left)

CCCCCCCCOC(=O)C(=CC=CNCCCN(CCCCN(CCCNC=CC=C(C(=O)OCCCCCCCC)S(=O)(=O)c1ccccc1)CCCNC=CC=C(C(=O)OCCCCCCCC)S(=O)(=O)c1ccccc1)CCCNC=CC=C(C(=O)OCCCCCCCC)S(=O)(=O)c1ccccc1)S(=O)(=O)c1ccccc1 [Compound 11, reference compound]
Heat stability: UV-absorption left after 5 days [1]: ++ (++ means >95% left) | Heat stability: UV-absorption left after 50 days [1]: +− (+− implies between 50-95% left) | Heat stability: UV-absorption left after 100 days [1]: − (− indicates <50% left)

CCCCCCCCOC(=O)C(=CC=CN(CCCC)CCN(C=CC=C(C(=O)OCCCCCCCC)S(=O)(=O)c1ccccc1)CCN(C=CC=C(C(=O)OCCCCCCCC)S(=O)(=O)c1ccccc1)CCCC)S(=O)(=O)c1ccccc1 [Compound 13]
Heat stability: UV-absorption left after 5 days [1]: ++ (++ means >95% left) | Heat stability: UV-absorption left after 50 days [1]: ++ (++ means >95% left) | Heat stability: UV-absorption left after 100 days [1]: ++ (++ means >95% left) | heat stability, in words [1]: very heat stable; also recorded: good heat stability | Solubility in Finsolv TN, dissolved amount (m/m %) 1% [2]: + | Solubility in Finsolv TN, dissolved amount (m/m %) 5% [2]: + | Solubility in Finsolv TN, dissolved amount (m/m %) 20% [2]: + | Solubility in Finsolv TN, dissolved amount (m/m %) 50% [2]: − | Solubility in Finsolv TN, dissolved amount (m/m %) 80% [2]: − | Solubility in Finsolv TN, dissolved amount (m/m %) 90% [2]: −

CC(C)OC(=O)C(=CC=CN(CCCCCCN(C=CC=C(C(=O)OC(C)C)S(=O)(=O)c1ccccc1)Cc1ccccc1)CCCCCCN(C=CC=C(C(=O)OC(C)C)S(=O)(=O)c1ccccc1)Cc1ccccc1)S(=O)(=O)c1ccccc1 [Compound 17]
Heat stability: UV-absorption left after 5 days [1]: ++ (++ means >95% left) | Heat stability: UV-absorption left after 50 days [1]: ++ (++ means >95% left) | Heat stability: UV-absorption left after 100 days [1]: ++ (++ means >95% left) | Solubility in Finsolv TN, dissolved amount (m/m %) 1% [2]: − | Solubility in Finsolv TN, dissolved amount (m/m %) 5% [2]: − | Solubility in Finsolv TN, dissolved amount (m/m %) 20% [2]: − | Solubility in Finsolv TN, dissolved amount (m/m %) 50% [2]: − | Solubility in Finsolv TN, dissolved amount (m/m %) 80% [2]: − | Solubility in Finsolv TN, dissolved amount (m/m %) 90% [2]: −

CCCCC(CC)COC(=O)C(=CC=CN(CCCCCCN(C=CC=C(C(=O)OCC(CC)CCCC)S(=O)(=O)c1ccccc1)Cc1ccccc1)CCCCCCN(C=CC=C(C(=O)OCC(CC)CCCC)S(=O)(=O)c1ccccc1)Cc1ccccc1)S(=O)(=O)c1ccccc1 (centres unmarked) [Compound 18]
Heat stability: UV-absorption left after 5 days [1]: ++ (++ means >95% left) | Heat stability: UV-absorption left after 50 days [1]: ++ (++ means >95% left) | Heat stability: UV-absorption left after 100 days [1]: ++ (++ means >95% left) | Solubility in Finsolv TN, dissolved amount (m/m %) 1% [2]: + | Solubility in Finsolv TN, dissolved amount (m/m %) 5% [2]: − | Solubility in Finsolv TN, dissolved amount (m/m %) 20% [2]: − | Solubility in Finsolv TN, dissolved amount (m/m %) 50% [2]: − | Solubility in Finsolv TN, dissolved amount (m/m %) 80% [2]: − | Solubility in Finsolv TN, dissolved amount (m/m %) 90% [2]: −

CCCCCCCCCCCCCCCCCCOC(=O)C(=CC=CN(CCCCCCN(C=CC=C(C(=O)OCCCCCCCCCCCCCCCCCC)S(=O)(=O)c1ccccc1)Cc1ccccc1)CCCCCCN(C=CC=C(C(=O)OCCCCCCCCCCCCCCCCCC)S(=O)(=O)c1ccccc1)Cc1ccccc1)S(=O)(=O)c1ccccc1 [Compound 19]
Heat stability: UV-absorption left after 5 days [1]: ++ (++ means >95% left) | Heat stability: UV-absorption left after 50 days [1]: ++ (++ means >95% left) | Heat stability: UV-absorption left after 100 days [1]: ++ (++ means >95% left) | Solubility in Finsolv TN, dissolved amount (m/m %) 1% [2]: + | Solubility in Finsolv TN, dissolved amount (m/m %) 5% [2]: + | Solubility in Finsolv TN, dissolved amount (m/m %) 20% [2]: + | Solubility in Finsolv TN, dissolved amount (m/m %) 50% [2]: + | Solubility in Finsolv TN, dissolved amount (m/m %) 80% [2]: + | Solubility in Finsolv TN, dissolved amount (m/m %) 90% [2]: +

CCCCCCCCOC(=O)C(=CC=CN(C(C)=O)c1ccccc1)S(=O)(=O)c1ccccc1 [aminobutadiene 3, reference compound]
Presence in receptor fluid after 6 h (human skin; human skin (mostly epidermis), 37°, PBS receptor fluid, compound 3 donor in EtOH/PBS pH 7.4, others dispersed in olive oil, UV-analysis): + (a ‘+’ means that more than 50% of the substance penetrates the skin) | penetration into or through the skin (UV analysis of DMSO skin extracts), in words (human skin): observed inside the skin sample | penetration through the skin (UV-analysis of collected receptor fluids), in words (human skin): penetration | Presence in skin extract (human skin; skin parts extracted with DMSO after the penetration experiment, UV analysis): + (a ‘+’ means that more than 50% of the substance penetrates the skin)
